Patent publication US7601735B2, “Antiviral compounds” (priority 2001, dated 2009)
Values joined by “and” are separate entries in the source; they are usually repeats but may differ in a detail not shown here. Equal entries are not always repeated. Where two headings read alike, the source gives them in different places.

Key:
[1] = test system: BVDV NADL; assay: XTT cytopathicity assay, infected cells; format: cell-based, bovine viral diarrhoea virus; settings: for protection of MDBK cells against virus-induced cell death (cytopathic effect of BVDV): FIG. 2
Method: The cells were washed twice in warm phosphate buffered saline (PBS) and then infected with BVDV NADL (100 pfu/well) in 100 μl of DMEM supplemented with 5% horse serum, 2 mM L-glutamine, 50 U/ml penicillin and 50 μg/ml streptomycin. Some wells were mock infected to act as controls. A further 100 μl of DMEM supplemented as above, but containing different concentrations of test compound or no compound was then added to each well. Triplicate wells were used for each compound concentration. In parallel, uninfected cells were treated with compound to assess cytotoxicity. The plates were then incubated at 37° C. with 5% CO2. […] The absorbance was then determined at 450 nm.

[2] = test system: MDBK cells; assay: Cytotoxicity in plaque reduction assay, microscopic examination of the cell monolayers; format: cell-based, bovine
Method: (§1) MDBK cells were seeded into 6-well cell culture plates (Nunclon™, Nunc, Denmark) and allowed to grow to confluency. The cells are washed twice in warm phosphate buffered saline (PBS) and then infected with BVDV NADL (150 pfu/well) in 0.25 ml PBS containing 1% horse serum and 1 mM MgCl2. The cell culture plates were then incubated at 37° C. for one hour with 5% CO2 and the plates rocked every 15-20 minutes. The virus inoculum was then removed and replaced with 3.0 ml of 0.5% low-gelling temperature agarose overlay diluted in DMEM supplemented with 5% horse serum, 2 mM L-glutamine, 50 U/ml penicillin and 50 Lg/ml streptomycin and containing different concentrations of test compound or no compound. At least duplicate or triplicate wells were used for each concentration of test compound. The agarose was allowed to solidify at room temperature for 15 minutes and then incubated at 37° C. with 5% CO2. After 3 days incubation the cells were fixed by adding 1.5 ml of a […] solution over the agar overlay and leaving overnight. The agar was gently removed from the wells and the cells stained with 0.3% methylene blue in PBS for 10 minutes at room temperature. The excess stain was removed and the cells washed with PBS prior to drying of the plates and counting of the viral plaques microscopically. Dose response lines were plotted from the mean number of plaques present versus the log of the concentration of the compound. The 50% Inhibitory concentration (IC50) was computed after linear regression analysis.
(§2) There was no sign of cytotoxicity at concentrations up to 1000 μM as judged by microscopic examination of the cell monolayers.

[3] = test system: BVDV NADL; assay: Plaque reduction assay in MDBK cells; format: cell-based, bovine viral diarrhoea virus; settings: for IC50 / inhibition of formation of BVDV plaques: MDBK cells; for concentrations at which only partial inhibition was shown: parallel plaque reduction experiments; for inhibition of formation of BVDV plaques: FIG. 1
Method: MDBK cells (NBL-1) (ATCC CCL22) derived from bovine kidney and cytopathic (cp) BVDV (strain NADL) (ATCC VR-534) were available from the American Type Culture Collection (ATCC).
as §1

[4] = test system: MDBK cells; assay: XTT cytopathicity assay, uninfected cells (cytotoxicity); format: cell-based, bovine; settings: for CC50: uninfected MDBK cells, 6 days
Method: (§3) MDBK cells were seeded into 96-well cell culture plates (Costar® 3596, Corning Incorp., USA) and allowed to grow to confluency. The cells were washed twice in warm phosphate buffered saline (PBS) and then infected with BVDV NADL (100 pfu/well) in 100 μl of DMEM supplemented with 5% horse serum, 2 mM L-glutamine, 50 U/ml penicillin and 50 μg/ml streptomycin. Some wells were mock infected to act as controls. A further 100 μl of DMEM supplemented as above, but containing different concentrations of test compound or no compound was then added to each well. Triplicate wells were used for each compound concentration. In parallel, uninfected cells were treated with compound to assess cytotoxicity. The plates were then incubated at 37° C. with 5% CO2. After 6 days 25 μl of a 1 mg/ml 2,3-bis[2-methoxy-4-nitro-5-sulphophenyl]-2H-tetrazolium-5-carboxanilide (XTT)/25 μM phenazine methosulphate (PMS) solution (XTT and PMS purchased from Sigma, Poole, Dorset, UK) was then added to each well and the plates incubated for 2 hours at 37° C. with 5% CO2. The absorbance was then determined at 450 nm. Data was plotted as O. D versus the log of the concentration of the compound and the 50% inhibitory concentration (IC50) computed.

[5] = Cytotoxicity in plaque reduction assay, microscopic examination of the cell monolayers; format: cell-based, bovine; settings: bovine
Method: as §1, §2

[6] = XTT cytopathicity assay, uninfected cells (cytotoxicity); format: cell-based, bovine; settings: bovine
Method: as §3

[7] = test system: BVDV; assay: XTT cytopathicity assay, Bucast in combination with interferon alpha; format: cell-based, bovine viral diarrhoea virus
Method: as §3
The combination indexes (CI) were calculated using the formula of Suhnel (Antiviral Research, 13, 23-40). A CI value of less than 1 indicates a synergistic interaction and values of less than 0.8 are considered to indicate a statistically significant result.

[8] = individual experiments, MOI = 0.01, read-out: *IC50
[9] = MDBK cell monolayers, plaque reduction assay
[10] = individual experiments, 150 pfu/well, 3 days, read-out: IC50
[11] = mean of experiments, read-out: Mean IC50 (μM) ± SD

Row | Molecule | protection of MDBK cells against virus-induced cell death (cytopathic effect of BVDV) [1] | IC50 [1, 8] | IC50 [3, 10] | IC50 [3, 11] [µM] | concentrations at which only partial inhibition was shown [3] [µM] | cytotoxicity to uninfected treated cells ([4]; FIG. 2) | CC50 [4] [µM] | inhibition of formation of BVDV plaques [3] | IC50 ([1]; MOI 0.0001, read-out: IC50) [µM] | IC50 ([1]; MOI 0.001, read-out: IC50) [µM] | IC50 ([1]; MOI 0.01, read-out: IC50) | IC50 ([1]; MOI 0.1, read-out: IC50) | CC50 [2, 9] [µM] | further results
1 | CCCCCCCCCN1C[C@H](O)[C@@H](O)[C@H](O)[C@H]1CO [N-Nonyl-DNJ, N-nonyl-deoxynojirimycin] | neither N-butyl-DNJ or N-nonyl-DNJ demonstrated any protection | 60 µM and > 100 µM | 90 µM and 120 µM | 105 | > 300 | clearly cytotoxic | 120 |  |  |  |  |  |  | CC50 (μM) [2, 9]: Toxic @ 300; cytotoxicity to cells ([2]; at a concentration of 300 μM): clearly cytotoxic
2 | OC1CN2CC[C@H](O)[C@@H]2C(O)[C@@H]1O (stereo partly drawn) [Castanospermine, [1S-(1α, 6β,7α,8β,8αβ)]-octahydro-1,6,7,8-indoli-zinetetrol] | protected MDBK cells against virus-induced cell death | 500 µM | 190 µM and 280 µM |  |  |  |  | inhibited the formation of BVDV plaques in a dose dependent manner |  |  |  |  |  | IC50 ([1]; Bovine viral diarrhea virus isolates and strains, in Bos taurus, individual experiments, MOI = 0.01, read-out: *IC50): 300 µM; IC50 ([1]; Bovine viral diarrhea virus isolates and strains, in Bos taurus, read-out: mean IC50 (μM), mean, MOI = 0.01): 400 µM; CC50 at 3 days [5]: > 1 mM; IC50 ([3]; Bovine viral diarrhea virus isolates and strains, MDBK, in Bos taurus, 72 h, individual experiments, 150 pfu/well, 3 days, read-out: IC50): 180 µM; IC50 ([3]; Bovine viral diarrhea virus isolates and strains, MDBK, in Bos taurus, mean of experiments, read-out: Mean IC50 (μM) ± SD): 217 µM; cytotoxicity to uninfected treated cells [4]: no cytotoxicity; CC50 at 6 days [6]: > 1 mM
3 | Interferon α |  |  |  |  |  |  |  |  |  |  |  |  |  | IC50 ([1]; interferon alone): 1.3 interferon resistance units (IRU) per well; IC50 Interferon α (IRU/well) ([7]; fixed Bucast 0 μM): 1.3 IRU/well; IC50 Interferon α (IRU/well) ([7]; fixed Bucast 5 μM): 0.22 IRU/well; IC50 Interferon α (IRU/well) ([7]; fixed Bucast 10 μM): 0.12 IRU/well
4 | CCCCN1C[C@H](O)[C@@H](O)[C@H](O)[C@H]1CO [N-Butyl-DNJ, N-butyl-deoxynojirimycin] | neither N-butyl-DNJ or N-nonyl-DNJ demonstrated any protection | > 1000 µM | > 300 µM and 250 µM |  | > 100 | no cytotoxicity | > 1000 |  | 55 | > 300 | > 300 µM | > 300 µM | > 300 | fold less potent than Bucast ([1]; very low MOI): 10 fold
5 | CCCC(=O)O[C@H]1CN2CC[C@H](O)[C@@H]2[C@@H](O)[C@@H]1O [Bucast, 60-butanoylcastanospermine] | protected MDBK cells against virus-induced cell death | 60 µM (2×) and 30 µM and 70 µM and 40 µM | 10 µM (2×) and 20 µM and 25 µM | 16.2 |  | no cytotoxicity | > 300 | inhibited the formation of BVDV plaques in a dose dependent manner | 5 | 40 | 60 µM and 30 µM | 200 µM and 170 µM | > 1000 | IC50 ([1]; mean, MOI = 0.01, read-out: mean IC50): 36 µM and 52 µM; times more potent than castanospermine ([3]; ratio of mean IC50): approximately 13 times; IC50 ([7]; fixed interferon α 0 IRU/well): 52 ± 16.4 µM; IC50 ([7]; fixed interferon α 0.125 IRU/well): 13 µM; IC50 ([7]; fixed interferon α 0.25 IRU/well): 4 µM; IC50 ([7]; fixed interferon α 0.5 IRU/well): 3 µM
